Active and inactive are the calls of the source. The rule behind the calls is not given here.
How the values were obtained:
[1] = biological target: T1, Coagulation factor XI (Homo sapiens, UniProt P03951); details: dose 50.0 nM, time 1.0 hrs
[2] = tested on: Mus musculus; assay: Antithrombotic activity against FeCl3-induced carotid artery thrombosis C57BL/6J mouse model assessed as prolongation of occlusion time pretreated at 19.5 mg/kg, iv tail vein injection for 10 mins followed by FeCl3 addition for 3 mins and measured after 30 mins; assay type: functional, organism-based; details: time 43.0 min
[3] = Toxicity in C57BL/6J mouse assessed as bleeding risk at 19.5 to 39 mg/kg, iv measured after 15 mins by tail transection assay; assay type: organism-based; details: in vivo, 0.25 h, dose 19.5-39 mg/kg
[4] = Cmax in Sprague-Dawley rat at 10 mg/kg, iv after 0.083 to 24 hrs by LC-MS/MS analysis; assay type: ADME, organism-based; set-up: route intravenous, dose 10 mg/kg, time upper 24 hrs, time lower 0.083 hrs; details: in vivo
[5] = biological target: Coagulation factor IX (Homo sapiens) (UniProt P00740); assay: Inhibition of coagulation factor IXa (unknown origin) assessed as chromogenic substrate using ADG299 as substrate at 1 mM incubated for 1 hr by spectrophotometer based microplate reader method
[6] = AUC(0 to infinity) in Sprague-Dawley rat at 10 mg/kg, iv after 0.083 to 24 hrs by LC-MS/MS analysis; assay type: ADME, organism-based; set-up: route intravenous, dose 10 mg/kg, time upper 24 hrs, time lower 0.083 hrs; details: in vivo
[7] = tested on: Plasma; assay: Anticoagulant activity in mouse platelet-poor plasma assessed as increase in activated partial thromboplastin time at 22 ug/ml incubated for 3 mins by coagulometer analysis; assay type: functional, cell-free; details: dose 22.0 µg/ml
[8] = AUC(0 to t) in Sprague-Dawley rat at 10 mg/kg, iv after 0.083 to 24 hrs by LC-MS/MS analysis; assay type: ADME, organism-based; set-up: route intravenous, time upper 24 hrs, time lower 0.083 hrs, dose 10 mg/kg; details: in vivo
[9] = Acute toxicity in ICR mouse assessed as histological change in heart at 50 to 100 mg/kg, iv as single dose for 14 days by H and E staining method; assay type: organism-based; details: in vivo, 336 h, dose 50-100 mg/kg, time 14 day
[10] = biological target: T1, Coagulation factor XI; assay: Inhibition of coagulation factor XIa (unknown origin) assessed as chromogenic substrate hydrolysis using CS-21(66) as substrate incubated for 1 hr by spectrophotometer based microplate reader method
[11] = biological target: T2, Coagulation factor XII (Homo sapiens) (UniProt P00748); assay: Inhibition of coagulation factor XIIa (unknown origin) assessed as chromogenic substrate using TH5253 as substrate at 1 mM incubated for 1 hr by spectrophotometer based microplate reader method
T2 sequence (whole entry): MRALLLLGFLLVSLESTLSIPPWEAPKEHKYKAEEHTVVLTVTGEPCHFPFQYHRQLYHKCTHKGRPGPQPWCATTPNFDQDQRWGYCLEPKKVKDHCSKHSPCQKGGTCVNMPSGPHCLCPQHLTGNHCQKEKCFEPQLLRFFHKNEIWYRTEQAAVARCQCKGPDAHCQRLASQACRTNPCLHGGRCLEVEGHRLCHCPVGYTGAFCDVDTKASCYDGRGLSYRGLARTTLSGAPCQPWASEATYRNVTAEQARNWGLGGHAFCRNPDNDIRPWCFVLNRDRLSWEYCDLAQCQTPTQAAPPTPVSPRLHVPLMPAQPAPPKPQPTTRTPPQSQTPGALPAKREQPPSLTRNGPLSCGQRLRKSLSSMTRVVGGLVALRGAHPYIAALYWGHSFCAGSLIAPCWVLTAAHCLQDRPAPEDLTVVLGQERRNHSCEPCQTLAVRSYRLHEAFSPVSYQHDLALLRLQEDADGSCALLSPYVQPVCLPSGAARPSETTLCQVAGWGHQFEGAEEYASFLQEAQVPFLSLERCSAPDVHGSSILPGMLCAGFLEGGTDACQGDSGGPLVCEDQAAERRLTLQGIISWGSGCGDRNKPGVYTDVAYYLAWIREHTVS

[12] = biological target: Plasma kallikrein (Homo sapiens, UniProt P03952); assay: Inhibition of plasma kallikrein (unknown origin) assessed as chromogenic substrate hydrolysis using CS-31(02) as substrate incubated for 1 hr by spectrophotometer based microplate reader method
[13] = Apparent volume of distribution in Sprague-Dawley rat at 10 mg/kg, iv after 0.083 to 24 hrs by LC-MS/MS analysis; assay type: ADME, organism-based; details: in vivo, time 0.083-24 hrs, read-out: Vz
[14] = MRT(0 to t) in Sprague-Dawley rat at 10 mg/kg, iv after 0.083 to 24 hrs by LC-MS/MS analysis; assay type: ADME, organism-based; details: in vivo, time 0.083-24 hrs
[15] = species: Homo sapiens; assay: Selectivity index, ratio of IC50 for trypsin (unknown origin) to IC50 for coagulation factor XIa (unknown origin)
[16] = biological target: T3, Coagulation factor VII (Homo sapiens) (UniProt P08709); assay: Inhibition of coagulation factor VIIa (unknown origin) assessed as chromogenic substrate using chromozyme t-PA as substrate at 1 mM incubated for 1 hr by spectrophotometer based microplate reader method
T3 sequence (whole entry): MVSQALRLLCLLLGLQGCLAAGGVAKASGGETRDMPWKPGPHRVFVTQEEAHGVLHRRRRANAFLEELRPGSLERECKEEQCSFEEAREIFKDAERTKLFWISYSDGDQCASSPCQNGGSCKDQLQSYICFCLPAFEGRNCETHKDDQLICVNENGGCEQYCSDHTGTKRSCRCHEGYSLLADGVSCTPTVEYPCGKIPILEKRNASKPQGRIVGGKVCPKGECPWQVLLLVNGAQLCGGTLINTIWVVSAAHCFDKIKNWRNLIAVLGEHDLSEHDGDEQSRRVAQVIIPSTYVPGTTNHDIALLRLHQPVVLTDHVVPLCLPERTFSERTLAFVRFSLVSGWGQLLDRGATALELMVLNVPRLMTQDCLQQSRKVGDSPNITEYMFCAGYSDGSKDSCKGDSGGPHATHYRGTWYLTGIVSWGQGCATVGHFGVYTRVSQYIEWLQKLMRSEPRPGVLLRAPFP

[17] = Half life in Sprague-Dawley rat at 10 mg/kg, iv after 0.083 to 24 hrs by LC-MS/MS analysis; assay type: ADME, organism-based; details: in vivo, time 0.083-24 hrs
[18] = Acute toxicity in ICR female mouse assessed as effect on weight loss at 50 to 100 mg/kg, iv as single dose for 14 days; assay type: organism-based; details: in vivo, 336 h, dose 50-100 mg/kg, time 14 day
[19] = tested on: Plasma; assay: Anticoagulant activity in mouse platelet-poor plasma assessed as increase in prothrombin time at 3.8 to 210 ug/ml incubated for 3 mins by coagulometer analysis; assay type: functional, cell-free; details: dose 3.8-210 µg/ml
[20] = Acute toxicity in ICR mouse assessed as histological change in liver at 50 to 100 mg/kg, iv as single dose for 14 days by H and E staining method; assay type: organism-based; details: in vivo, 336 h, dose 50-100 mg/kg, time 14 day
[21] = species: Homo sapiens; assay: Selectivity index, ratio of IC50 for coagulation factor VIIa (unknown origin) to IC50 for coagulation factor XIa (unknown origin)
[22] = species: Homo sapiens; assay: Selectivity index, ratio of IC50 for coagulation factor Xa (unknown origin) to IC50 for coagulation factor XIa (unknown origin)
[23] = species: Homo sapiens; assay: Selectivity index, ratio of IC50 for thrombin (unknown origin) to IC50 for coagulation factor XIa (unknown origin)

T1 sequence (P03951 19-387 limits assumed): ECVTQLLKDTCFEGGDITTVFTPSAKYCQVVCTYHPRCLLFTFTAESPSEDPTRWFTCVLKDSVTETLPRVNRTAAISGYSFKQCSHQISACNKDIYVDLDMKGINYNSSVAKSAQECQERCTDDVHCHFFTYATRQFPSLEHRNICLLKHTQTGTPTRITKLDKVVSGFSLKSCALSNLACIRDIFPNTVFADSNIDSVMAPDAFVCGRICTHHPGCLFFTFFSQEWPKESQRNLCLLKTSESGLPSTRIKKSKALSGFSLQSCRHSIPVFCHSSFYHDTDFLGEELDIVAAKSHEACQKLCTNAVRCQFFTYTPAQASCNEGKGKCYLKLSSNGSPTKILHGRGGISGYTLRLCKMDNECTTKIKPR
T1 sequence (P03951 388-625 limits assumed): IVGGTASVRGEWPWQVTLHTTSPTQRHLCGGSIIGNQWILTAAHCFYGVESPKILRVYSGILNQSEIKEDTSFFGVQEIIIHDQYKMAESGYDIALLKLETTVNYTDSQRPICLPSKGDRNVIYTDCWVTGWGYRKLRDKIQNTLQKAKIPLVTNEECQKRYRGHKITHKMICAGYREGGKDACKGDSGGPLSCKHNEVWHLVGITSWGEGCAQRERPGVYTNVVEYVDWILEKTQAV
Plasma kallikrein, sequence (P03952 20-390 limits assumed): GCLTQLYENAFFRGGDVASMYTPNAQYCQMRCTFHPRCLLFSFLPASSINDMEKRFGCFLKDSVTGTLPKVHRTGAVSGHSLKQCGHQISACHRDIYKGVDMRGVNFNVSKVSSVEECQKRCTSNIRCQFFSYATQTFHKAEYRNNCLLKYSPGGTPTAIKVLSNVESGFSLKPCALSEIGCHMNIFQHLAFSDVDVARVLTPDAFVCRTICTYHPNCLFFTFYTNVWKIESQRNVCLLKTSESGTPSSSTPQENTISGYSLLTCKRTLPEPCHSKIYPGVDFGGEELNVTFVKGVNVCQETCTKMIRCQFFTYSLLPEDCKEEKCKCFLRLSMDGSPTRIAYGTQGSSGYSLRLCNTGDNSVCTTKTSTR
Plasma kallikrein, sequence (P03952 391-638 limits assumed): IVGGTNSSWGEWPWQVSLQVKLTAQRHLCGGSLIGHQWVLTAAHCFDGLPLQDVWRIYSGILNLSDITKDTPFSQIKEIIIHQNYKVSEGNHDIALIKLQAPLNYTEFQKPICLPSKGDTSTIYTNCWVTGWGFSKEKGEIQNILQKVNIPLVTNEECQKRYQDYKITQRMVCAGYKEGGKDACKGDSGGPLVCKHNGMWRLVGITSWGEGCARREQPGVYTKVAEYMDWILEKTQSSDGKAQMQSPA
Coagulation factor IX (Homo sapiens), sequence (P00740 47-191 limits assumed): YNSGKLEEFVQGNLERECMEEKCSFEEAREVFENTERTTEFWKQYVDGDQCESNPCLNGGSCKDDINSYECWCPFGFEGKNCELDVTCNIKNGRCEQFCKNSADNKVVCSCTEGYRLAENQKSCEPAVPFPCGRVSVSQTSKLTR
Coagulation factor IX (Homo sapiens), sequence (P00740 227-461 limits assumed): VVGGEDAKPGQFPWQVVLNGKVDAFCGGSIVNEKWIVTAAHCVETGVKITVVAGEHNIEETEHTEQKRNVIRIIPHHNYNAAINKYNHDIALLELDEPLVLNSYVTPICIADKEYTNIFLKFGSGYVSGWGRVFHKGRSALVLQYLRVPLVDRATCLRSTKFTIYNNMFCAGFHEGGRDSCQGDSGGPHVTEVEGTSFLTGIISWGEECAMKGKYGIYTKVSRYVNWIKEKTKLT

**Q.** With `O=C(/C=C/c1cc(Cl)ccc1-n1cnnn1)N[C@@H](CC(=O)N1CCN(c2ccccc2)CC1)C(=O)Nc1ccc(C(=O)O)cc1` as the molecule, how does the inhibition [1] read?
**A.** The inhibition was 59.4%.

**Q.** What about the Activity [2] of the same molecule?
**A.** The Activity was “Active”.

**Q.** And the Activity [3]?
**A.** Its Activity is “Non-Toxic”.

**Q.** And the Cmax [4]?
**A.** Its Cmax is 57 µg/mL.

**Q.** What about the inhibition [5] of the same molecule?
**A.** Its inhibition is “inactive”.

**Q.** And the AUC(0-inf) [6]?
**A.** The AUC(0-inf) was 18400 ng·h/mL.

**Q.** And the Activity [7]?
**A.** The Activity was “Active”.

**Q.** And the AUC(0-t) [8]?
**A.** The AUC(0-t) was 18300 ng·h/mL.

**Q.** What about the Activity [9] of the same molecule?
**A.** The Activity was “Non-Toxic”.

**Q.** And the IC50 [10]?
**A.** The IC50 was 0.0142 µM.

**Q.** And the inhibition [11]?
**A.** Its inhibition is “inactive”.

**Q.** What about the IC50 [12] of the same molecule?
**A.** Its IC50 is 27.9 µM.

**Q.** And the Vd [13]?
**A.** Its Vd is 0.969 L/kg.

**Q.** What about the MRT last [14] of the same molecule?
**A.** The MRT last was 19.2 min.

**Q.** What about the Ratio IC50 [15] of the same molecule?
**A.** The Ratio IC50 was > 5000.

**Q.** What about the inhibition [16] of the same molecule?
**A.** The inhibition was “inactive”.

**Q.** And the half-life [17]?
**A.** The half-life was 75.6 min.

**Q.** And the Activity [18]?
**A.** The Activity was “Non-Toxic”.

**Q.** What about the Activity [19] of the same molecule?
**A.** Its Activity is “inactive”.

**Q.** And the Activity [20]?
**A.** Its Activity is “Non-Toxic”.

**Q.** What about the Ratio IC50 [21] of the same molecule?
**A.** Its Ratio IC50 is > 5000.

**Q.** What about the Ratio IC50 [22] of the same molecule?
**A.** Its Ratio IC50 is > 5000.

**Q.** And the Ratio IC50 [23]?
**A.** The Ratio IC50 was > 5000.
